These results are taken from patent publication US20080293801A1, “Solid Amorphous Dispersions of An Mtp Inhibitor For Treatment of Obesity” (PFizer Inc., priority 2003, published 2008).

Molecules are shown by their SMILES. Where “and” joins values, the source holds several entries; their conditions need not be identical. Equal entries are not always repeated. Marks after values point to notes of the source that are not given here.

Data set [1] can be described thus: Solubility of the lowest energy crystalline form of Drug A in water. Type of data set: physicochemical. As to conditions: lowest energy crystalline form presently known. The protocol:
Drug A is an MTP inhibitor intended for the treatment of obesity. The solubility of the lowest energy crystalline form of Drug A presently known in water is less than 0.6 μg/ml. Drug A is nonionizable, and has a cLog P of about 7.8. These characteristics contribute to its water insoluble nature.

The nature of data set [2]: In vitro dissolution test in model fasted duodenal solution (MFDS). Type of data set: physicochemical. Particulars: MTC 500 μg/mL; for AUC / Drug A Concentration: MFDS pH 6.5, 37° C. The protocol: Samples of Example 1 and Control C1 were added to respective microcentrifuge tubes in duplicate. For these tests, a sufficient amount of material was added so that the maximum theoretical concentration of drug (MTC) would have been 500 μg/mL, if all of the drug had dissolved. The tubes were placed in a 37° C. temperature-controlled chamber, and 1.8 mL model fasted duodenal solution, or “MFDS” was added to each respective tube. The MFDS consisted of 1.8 mL PBS containing 0.5 wt % sodium taurocholic acid and 1-palmitoyl-2-oleyl-sn-glycero-3-phosphocholine (NaTC/POPC, with a 4/1 weight ratio) at pH 6.5 and adjusted to 290 mOsm/kg with NaCl:KCl (20.4:1 wt/wt). The samples were quickly mixed using a vortex mixer for about 60 seconds. The samples were centrifuged at 13,000 G at 37° C. for 1 minute. The resulting supernatant solution was then sampled and diluted 1:6 (by volume) with methanol and then analyzed by high-performance liquid chromatography (HPLC) using a Phenomenex Luna, phenyl-hexyl 5 μm column with a mobile phase consisting of 70:30 (vol:vol) acetonitrile: water at a flow rate of 1 ml/min. Drug concentration was measured using UV absorbance at 241 nm. The contents of each respective tube were mixed on the vortex mixer and allowed to stand undisturbed at 37° C. until the next sample was taken. […]
The concentrations of drug obtained in these samples were used to determine the maximum dissolved drug concentration at 90 minutes (MDC90) and the area under the dissolved drug concentration versus time curve (AUC90) during the initial ninety minutes.
For each test, dispersions were added to microcentrifuge tubes in duplicate. For these tests, a sufficient amount of material was added so that the maximum theoretical concentration (MTC) would have been 500 μg/mL, if all of the drug had dissolved. The tubes were placed in a 37° C. temperature-controlled chamber, and 1.8 mL PBS containing 0.5 wt % sodium taurocholic acid and 1-palmitoyl-2-oleyl-sn-glycero-3-phosphocholine (NaTC/POPC, with a 4/1 weight ratio) at pH 6.5 and 290 mOsm/kg (model fasted duodenal solution, “MFDS”) was added to each respective tube. The samples were quickly mixed using a vortex mixer for about 60 seconds. The samples were centrifuged at 13,000 G at 37° C. for 1 minute. The resulting supernatant solution was then sampled and diluted 1:6 (by volume) with methanol and then analyzed by HPLC as described above. The contents of each respective tube were mixed on the vortex mixer and allowed to stand undisturbed at 37° C. until the next sample was taken. […]
The concentrations of drug obtained in these samples were used to determine the MDC90 and the AUC90 during the initial ninety minutes.

In general, solubility refers to the concentration that dissolves in the medium under given conditions. Lower therefore signals a poorly soluble substance. Take `CN(Cc1ccccc1)C(=O)[C@@H](NC(=O)c1cc2cc(NC(=O)c3ccccc3-c3ccc(C(F)(F)F)cc3)ccc2n1C)c1ccccc1` [Drug A, (S)—N-{2-[benzyl(methyl)amino]-2-oxo-1-phenylethyl}-1-methyl-5-[4′-(trifluoromethyl)[1,1′-biphenyl]-2-carboxamido]-1H-indole-2-carboxamide]: the solubility in data set [1] was less than 0.6 µg/mL.

The AUC is the area under the concentration-time curve, a measure of exposure. High values mean more exposure, low ones less exposure. As to `CN(Cc1ccccc1)C(=O)[C@@H](NC(=O)c1cc2cc(NC(=O)c3ccccc3-c3ccc(C(F)(F)F)cc3)ccc2n1C)c1ccccc1` [Example C1], the AUC90 in data set [2] (area under dissolved drug concentration vs time curve, initial 90 minutes, MFDS) was 170 µg·min/mL and 200 µg·min/mL. In addition, the MDC90 in data set [2] (maximum dissolved drug concentration, initial 90 minutes, MFDS) is 3.1 µg/mL and 3 µg/mL. Further, the AUC in data set [2] (time 0 min) was 0 µg·min/mL; in data set [2] (time 4 min), 0 µg·min/mL; in data set [2] (time 40 min), 93 µg·min/mL and 100 µg·min/mL; in data set [2] (time 90 min), 170 µg·min/mL and 200 µg·min/mL; in data set [2] (time 1200 min), 800 µg·min/mL. For the same molecule, the “Drug A Concentration” value is 0 µg/mL in data set [2] (time 0 min); 0.0* μg/mL and 0 μg/mL in data set [2] (time 4 min); 2.6 µg/mL and 3 µg/mL in data set [2] (time 10 min); 3.1 µg/mL and 3 µg/mL in data set [2] (time 20 min); 2.6 µg/mL and 3 µg/mL in data set [2] (time 40 min); 0.8 µg/mL in data set [2] (time 1200 min).
